No end group written: not given here.
Columns and labels:
NgTET1 [1] = details: cited from earlier work
[2] = tested on: PAMH F3 female offspring (PCOS-like mice); assay: SAM treatment of PAMH F3 female mice: estrous cyclicity, LH, T, body composition, pancreatic islets; format: in vivo, mouse
Experimental: Control F1 and PAMH F1-F3 female offspring were weaned at post-natal day P21 and checked for vaginal opening (VO) and time of first estrus. Anogenital distance (AGD) and body mass (grams, g) were measured at different ages during post-natal development (P30, 35, 40, 50 and 60). At VO and in adulthood (P60), vaginal smears were performed daily for 16 consecutive days (4-cycles) for analysis of age of first estrus and estrous cyclicity. Vaginal cytology was analyzed under an inverted microscope to identify the specific stage of the estrous cycle. The reproductive competency of these animals was determined by pairing the following mice: CNTR F1 females mated with CNTR F1 males, CNTR F1 males mated with PAMH F1-F3 females, PAMH F1-F3 females mated with PAMH F1-F3 males, for a period of 3 months. Unexperienced males and primiparous females, selected from at least three different litters, were used for the 90-days mating protocol test. Number of pups/litter (number of pups), fertility index (number of litters per females over 3 months), and time to first litter (number of days to first litter after pairing) were quantified per treatment and pairing.
LH levels were determined by a sandwich ELISA, as described previously (Steyn et al., 2013), using the mouse LH-RP reference provided by A. F. Parlow (National Hormone and Pituitary Program, Torrance, CA). Plasma T levels were analyzed using a commercial ELISA (Demeditec Diagnostics, GmnH, DEV9911) (Moore et al., 2015) according to the manufacturers' instructions.
Whole body fat, fluids, and lean tissue mass were determined by Nuclear Magnetic Resonance (MiniSpec mq 7.5, RMN Analyser, Bruker) according to the manufacturer's recommendations.
(§1) PAMH F3 female offspring (6 months-old) were cycled for 10 days before treatment, and for additional 15 days during the treatment. CNTR female offspring (6 months-old) were not treated and were cycled for 25 days. Vaginal cytology was analyzed under an inverted microscope to record the specific stage of the estrous cycle. PAMH F3 offspring were injected intraperitoneally (i.p.) daily for 15 days with 200 μL of a solution containing 0.01M phosphate buffered saline (PBS, pH 7.4) or with SAM (50 mg/Kg/day; New England Biolegends, Cat. B9003S). This concentration was chosen based on previous in vivo pharmacological studies using the same drug (Li et al., 2012). Tail-blood samples were collected for LH and T measurements at dioestrus before the beginning of the treatments, at day 10, and at the end of the treatment, at day 25.

ovaries of PAMH F3 mice = assay: RT-qPCR gene expression in ovaries of SAM-treated PAMH F3 mice; format: in vivo, mouse
Experimental: Ovaries tissues were harvest from control F1 and PAMH F3 female mice, frozen ovaries were homogenized using 1 ml of Trizol (ThermoFisher Scientific, Cat #15596026) with a tissue homogenizer and total RNA was isolated using RNeasy Lipid Tissue Mini Kit (Qiagen; Cat #74804) following the manufacturer's instructions. For gene expression analyses, cDNA was synthetized from 1000 ng of total RNA using the High capacity RNA-to-cDNA kit (Applied Biosystems, Cat #4387406) using the manufacturer's recommended cycling conditions. Real-time PCR was carried out on Applied Biosystems 7900HT Fast Real-Time PCR system using exon-boundary-specific TaqMan® Gene Expression Assays (Applied Biosystems) (Table S4). Data were analyzed by using the 2^−ΔΔCT method (Livak and Schmittgen, 2001) and normalized to housekeeping genes Beta-actin (ActB) levels. Values are expressed relative to control values, as appropriate, set at 1.
as §1

mTET1 = mTET1 (Mus musculus, UniProt Q3URK3); details: cited from earlier work
NgTET1 [3] = target: T1, NgTET1 (Naegleria gruberi, UniProt D2W6T1); details: cited from earlier work
T1 sequence (D2W6T1 1-321): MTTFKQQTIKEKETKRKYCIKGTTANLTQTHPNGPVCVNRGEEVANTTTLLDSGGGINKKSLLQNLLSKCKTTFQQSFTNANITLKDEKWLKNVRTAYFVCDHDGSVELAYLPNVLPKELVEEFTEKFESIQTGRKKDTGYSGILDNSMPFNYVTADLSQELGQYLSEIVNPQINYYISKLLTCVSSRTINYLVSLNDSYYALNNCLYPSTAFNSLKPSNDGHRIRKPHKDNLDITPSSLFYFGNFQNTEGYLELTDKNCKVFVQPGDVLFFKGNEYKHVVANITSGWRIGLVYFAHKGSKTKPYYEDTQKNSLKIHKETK

[4] = target: T2, TET1 catalytic domain (TET1CD) (Homo sapiens, UniProt Q8NFU7); details: cited from earlier work
T2 sequence (Q8NFU7 1418-2136 limits assumed): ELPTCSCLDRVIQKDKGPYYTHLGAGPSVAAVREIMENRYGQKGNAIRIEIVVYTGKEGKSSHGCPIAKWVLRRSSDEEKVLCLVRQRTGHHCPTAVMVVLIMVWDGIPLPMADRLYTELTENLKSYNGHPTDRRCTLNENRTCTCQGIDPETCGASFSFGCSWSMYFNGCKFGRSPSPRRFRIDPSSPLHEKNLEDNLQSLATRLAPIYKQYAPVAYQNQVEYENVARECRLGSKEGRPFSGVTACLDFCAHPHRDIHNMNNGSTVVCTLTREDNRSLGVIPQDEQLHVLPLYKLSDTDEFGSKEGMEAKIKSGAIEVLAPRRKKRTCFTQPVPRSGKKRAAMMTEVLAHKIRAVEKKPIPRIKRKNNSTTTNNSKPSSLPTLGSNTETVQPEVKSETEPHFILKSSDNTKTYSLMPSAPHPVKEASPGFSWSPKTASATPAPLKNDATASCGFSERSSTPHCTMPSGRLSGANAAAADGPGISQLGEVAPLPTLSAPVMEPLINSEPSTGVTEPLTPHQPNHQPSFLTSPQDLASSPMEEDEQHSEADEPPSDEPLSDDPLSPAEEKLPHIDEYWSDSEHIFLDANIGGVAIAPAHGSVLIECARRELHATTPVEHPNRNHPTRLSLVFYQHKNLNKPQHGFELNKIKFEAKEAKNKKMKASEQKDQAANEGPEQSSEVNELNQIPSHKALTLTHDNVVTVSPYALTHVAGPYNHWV

[5] = PAMH F3 females, SAM 50 mg/kg/day i.p. for 15 days
[6] = PAMH F3 females, dioestrus, day 25, SAM 50 mg/kg/day i.p. for 15 days

Chain of mTET1 (Q3URK3 whole entry): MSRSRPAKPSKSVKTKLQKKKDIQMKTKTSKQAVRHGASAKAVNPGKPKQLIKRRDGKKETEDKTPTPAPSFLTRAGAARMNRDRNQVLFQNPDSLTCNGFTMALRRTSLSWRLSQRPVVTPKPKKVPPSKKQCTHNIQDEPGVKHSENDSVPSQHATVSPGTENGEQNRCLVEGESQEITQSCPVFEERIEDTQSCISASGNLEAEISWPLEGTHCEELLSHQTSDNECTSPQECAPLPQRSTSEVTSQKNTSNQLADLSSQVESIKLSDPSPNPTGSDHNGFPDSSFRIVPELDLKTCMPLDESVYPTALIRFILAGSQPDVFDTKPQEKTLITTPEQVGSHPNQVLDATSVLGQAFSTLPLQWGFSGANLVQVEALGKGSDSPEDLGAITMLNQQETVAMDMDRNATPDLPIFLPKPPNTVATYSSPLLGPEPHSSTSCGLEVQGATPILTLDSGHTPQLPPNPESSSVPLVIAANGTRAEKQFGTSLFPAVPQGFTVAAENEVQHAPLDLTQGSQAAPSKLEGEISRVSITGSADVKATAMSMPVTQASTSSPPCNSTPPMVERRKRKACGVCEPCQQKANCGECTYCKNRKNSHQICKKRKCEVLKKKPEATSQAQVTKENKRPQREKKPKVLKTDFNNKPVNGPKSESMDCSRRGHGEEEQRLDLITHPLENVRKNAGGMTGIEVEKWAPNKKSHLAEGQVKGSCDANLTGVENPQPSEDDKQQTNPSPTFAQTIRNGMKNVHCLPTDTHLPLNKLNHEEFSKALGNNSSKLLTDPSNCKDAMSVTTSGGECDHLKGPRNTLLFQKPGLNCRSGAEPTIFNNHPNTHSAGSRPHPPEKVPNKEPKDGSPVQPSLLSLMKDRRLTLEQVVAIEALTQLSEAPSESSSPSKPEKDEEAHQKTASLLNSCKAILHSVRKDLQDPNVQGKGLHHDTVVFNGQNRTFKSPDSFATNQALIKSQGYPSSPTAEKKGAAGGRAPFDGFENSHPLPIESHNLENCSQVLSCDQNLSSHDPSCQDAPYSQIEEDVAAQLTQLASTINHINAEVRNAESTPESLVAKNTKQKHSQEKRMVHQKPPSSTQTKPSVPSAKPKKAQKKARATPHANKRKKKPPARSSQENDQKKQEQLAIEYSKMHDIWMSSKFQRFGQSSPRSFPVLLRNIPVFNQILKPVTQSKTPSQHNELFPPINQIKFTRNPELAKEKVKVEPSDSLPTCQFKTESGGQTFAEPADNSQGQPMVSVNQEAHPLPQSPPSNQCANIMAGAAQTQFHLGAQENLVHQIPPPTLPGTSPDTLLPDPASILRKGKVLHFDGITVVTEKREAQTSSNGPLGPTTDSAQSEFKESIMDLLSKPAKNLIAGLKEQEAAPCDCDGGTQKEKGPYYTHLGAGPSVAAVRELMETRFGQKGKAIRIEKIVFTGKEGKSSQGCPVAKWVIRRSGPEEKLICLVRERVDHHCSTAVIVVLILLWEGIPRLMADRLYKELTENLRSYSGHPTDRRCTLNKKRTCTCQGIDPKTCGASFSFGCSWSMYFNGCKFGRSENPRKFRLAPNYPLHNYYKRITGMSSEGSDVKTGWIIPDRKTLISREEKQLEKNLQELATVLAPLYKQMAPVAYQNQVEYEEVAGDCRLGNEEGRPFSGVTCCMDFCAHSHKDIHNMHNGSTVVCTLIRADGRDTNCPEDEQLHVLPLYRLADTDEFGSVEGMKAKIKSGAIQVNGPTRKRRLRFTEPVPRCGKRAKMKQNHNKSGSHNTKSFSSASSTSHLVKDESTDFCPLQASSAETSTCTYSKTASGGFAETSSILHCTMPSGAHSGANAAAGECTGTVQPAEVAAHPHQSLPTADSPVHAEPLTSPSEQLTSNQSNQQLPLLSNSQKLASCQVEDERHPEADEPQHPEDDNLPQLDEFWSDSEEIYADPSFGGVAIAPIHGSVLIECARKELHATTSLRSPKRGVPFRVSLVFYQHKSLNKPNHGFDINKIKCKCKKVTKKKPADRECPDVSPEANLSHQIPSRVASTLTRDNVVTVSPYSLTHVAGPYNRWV

For “cyclic peptide TET1 inhibitor, SEQ ID 5: (Ac)YYRVKTYYQITYVYLSC [Molecule 38]”, the IC50 (NgTET1 [1]) is listed as 1.44 µM.

For “cyclic peptide TET1 inhibitor, SEQ ID No 4: (Ac)YWYLPSYRVPWFC [Molecule 37]”, the IC50 (NgTET1 [1]) is given as 1.13 µM.

For `O=C(O)CNC(=O)C(=O)O` [Molecule 30, N-oxalylglycine], the IC50 (NgTET1 [1]) is listed as 49 µM.

For `O=C(O)c1ccnc(C(=O)O)c1` [Molecule 35, 2,4-pyridinedicarboxylic acid], the IC50 (NgTET1 [1]) is listed as 27 µM.

In the case of `C[S@@+](CC[C@H](N)C(=O)[O-])C[C@H]1O[C@@H](n2cnc3c(N)ncnc32)[C@H](O)[C@@H]1O` (stereo in doubt) [SAM, S-Adenosyl methionine], the “percentage of completed estrous cycles” value ([2]; PAMH F3 females, 6 months-old, SAM 50 mg/kg/day i.p. for 15 days) is reported as 75%, the “body mass composition, % of fat mass” value [2, 5] is reported as “normalized” and the “body mass composition, % of lean mass” value [2, 5] is reported as “normalized”. For the same compound, the “size of the islet of Langerhans” value [2, 5] was “normalized”, the “time spent in each estrous cycle stage (ovulation)” value [2, 5] was “restored normal ovulation” and the LH concentrations [2, 6] was “normalized”. For the same compound, the T concentrations [2, 6] was “normalized”, the “major PCOS-like neuroendocrine, reproductive and metabolic traits” value ([2]; PAMH F3 mice, postnatal SAM treatment) was “rescue” and the “Hdc ovarian gene expression” value (ovaries of PAMH F3 mice) was “rescue”. The “NF-κB mRNA in ovaries” value (ovaries of PAMH F3 mice) was “normalized”, the “Ptgs2 mRNA in ovaries” value (ovaries of PAMH F3 mice) was “normalized” and the “Sorbs2 expression in ovaries” value (ovaries of PAMH F3 mice) was “remained unaltered”. For the same compound, the “Uhrf1 expression in ovaries” value (ovaries of PAMH F3 mice) was “restored” and the “Tet1 transcript levels in ovarian tissues” value (ovaries of PAMH F3 mice; compared with controls) was “unaltered”.

In the case of Fumarate [Molecule 32], the IC50 (mTET1) is listed as 390 µM.

For `O=C(O)CCC(=O)C(=O)O` [Molecule 3, 2-oxoglutraric acid], the IC50 (NgTET1 [1]) is given as 250 µM.

In the case of `O=C(O)/C=C/C(=O)N(O)CCCCCCCCNC(=S)Nc1ccc(-c2c3ccc(=O)cc-3oc3cc(O)ccc23)c(C(=O)O)c1` [Molecule 33], the Kd (NgTET1 [3]) is given as 0.25 µM.

In the case of “cyclic peptide TET1 inhibitor, SEQ ID No 3: (Ac)YLIYAYYTWWEHSC (Ac-YLIYAYYTWWEHSC; not fully specified (bridges)) [Molecule 36]”, the “selectivity, inhibition of TET1CD over TET2CD” value [4] is listed as “tenfold” and the IC50 (NgTET1 [1]) is listed as 1.48 µM.

Source: patent publication US20240011094A1, “METHODS FOR DIAGNOSIS AND TREATING POLYCYSTIC OVARY SYNDROME (PCOS)” (INSTITUT NATIONAL DE LA SANTÉ ET DE LA RECHERCHE MÉDICALE, priority 2020, published 2024)
